Measurements as given in BigSolDB 2.1.

CCCCN(CCCC)CC(O)c1cc(Cl)cc2c1-c1ccc(Cl)cc1/C2=C/c1ccc(Cl)cc1 (stereo not given)
solubility (mole fraction)
Conditions | 278.15 K | 283.15 K | 288.15 K | 293.15 K | 298.15 K | 303.15 K | 308.15 K | 313.15 K | 318.15 K | 323.15 K
in ethyl acetate | 0.00178 | 0.00234 | 0.00317 | 0.00411 | 0.0054 | 0.00693 | 0.00903 | 0.0116 | 0.0152 | 0.0201
in methanol | 1.34e-05 | 1.7e-05 | 2.28e-05 | 3.04e-05 | 3.82e-05 | 4.97e-05 | 6.3e-05 | 8.2e-05 | 0.000106 | 0.000136
in n-butyl acetate | 0.00425 | 0.00533 | 0.00674 | 0.00866 | 0.0108 | 0.0138 | 0.0176 | 0.0223 | 0.0286 | 0.036
in n-pentyl acetate | 0.00475 | 0.00656 | 0.00849 | 0.011 | 0.0137 | 0.0168 | 0.0212 | 0.0253 | 0.0327 | 0.0407
in n-propyl acetate | 0.00281 | 0.00366 | 0.00486 | 0.00656 | 0.00841 | 0.0109 | 0.0139 | 0.018 | 0.0231 | 0.0305
